Experimental data reported in article PMC12706144, “Potential Antidiabetic Inhibitors and Antimicrobials from the Fungus Fusarium lichenicola Isolated from the Cicada Cryptotympana mandarina Distant, 1891” (Journal of Microbiology and Biotechnology, 2025).

Legend:
[1] = tested on: S. aureus, B. subtilis, E. coli, S. cerevisiae; settings: cited from earlier work
[2] = tested on: Gram-positive and Gram-negative bacteria and fungi; settings: cited from earlier work
[3] = tested on: S. aureus, B. subtilis, E. coli, and Klebsiella pneumoniae; settings: cited from earlier work
α-glucosidase = α-glucosidase (Saccharomyces cerevisiae, UniProt P53341); assay type: biochemical; settings: Table 4, reference compounds, independent experiment; read-out: IC50, α-Glucosidase inhibition
α-amylase = target: T1, α-amylase (Sus scrofa, UniProt P00690); assay: α-Amylase inhibitory assay (starch azure); assay type: biochemical; settings: Table 4, reference compounds, independent experiment; read-out: IC50, α-Amylase inhibition
T1 sequence (P00690 16-511): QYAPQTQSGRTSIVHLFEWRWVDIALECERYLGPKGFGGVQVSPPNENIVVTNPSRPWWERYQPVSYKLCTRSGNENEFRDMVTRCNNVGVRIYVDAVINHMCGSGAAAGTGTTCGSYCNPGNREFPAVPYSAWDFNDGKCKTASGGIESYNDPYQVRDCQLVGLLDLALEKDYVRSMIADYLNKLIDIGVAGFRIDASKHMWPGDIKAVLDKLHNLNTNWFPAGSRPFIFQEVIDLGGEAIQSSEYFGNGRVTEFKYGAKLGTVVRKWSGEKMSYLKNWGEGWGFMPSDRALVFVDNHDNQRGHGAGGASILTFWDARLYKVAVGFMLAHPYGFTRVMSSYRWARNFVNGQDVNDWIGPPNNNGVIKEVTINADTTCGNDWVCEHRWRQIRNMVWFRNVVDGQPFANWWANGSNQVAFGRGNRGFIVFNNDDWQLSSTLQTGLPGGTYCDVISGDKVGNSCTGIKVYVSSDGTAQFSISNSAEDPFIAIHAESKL

[4] = tested on: various bacterial pathogens; set-up: method as in PMID 34394014; settings: cited from earlier work

Sequence of α-glucosidase (P53341 whole entry, looked up): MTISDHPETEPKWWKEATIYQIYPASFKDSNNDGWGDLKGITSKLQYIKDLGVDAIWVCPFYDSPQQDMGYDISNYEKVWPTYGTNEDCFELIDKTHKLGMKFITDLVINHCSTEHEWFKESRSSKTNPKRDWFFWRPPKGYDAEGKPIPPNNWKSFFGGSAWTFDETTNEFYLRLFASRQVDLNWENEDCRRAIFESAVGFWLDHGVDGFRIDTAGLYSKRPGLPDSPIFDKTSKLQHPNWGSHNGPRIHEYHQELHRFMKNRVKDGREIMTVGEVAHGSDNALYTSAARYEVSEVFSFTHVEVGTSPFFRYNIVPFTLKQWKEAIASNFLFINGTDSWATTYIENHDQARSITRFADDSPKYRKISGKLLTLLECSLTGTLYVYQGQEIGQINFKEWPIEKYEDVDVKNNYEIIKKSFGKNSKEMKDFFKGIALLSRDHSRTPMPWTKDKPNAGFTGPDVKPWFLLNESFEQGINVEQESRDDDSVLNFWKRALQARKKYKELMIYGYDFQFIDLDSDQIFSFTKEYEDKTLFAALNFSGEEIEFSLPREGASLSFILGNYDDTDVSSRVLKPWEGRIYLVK

For `C=C(C)C1CC=C(C)CC1` (stereo not drawn) [C4, 4-Isopropenyl-1-methylcyclohexene], the MICs [1] is listed as 0.5 to 1.0 µg/mL.
In the case of `CCCCCC/C=C\CCCCCCCC(=O)O` [C22, Palmitoleic acid], the antimicrobial activity [2] is listed as “antimicrobial activity”.
In the case of `CCCCCCCCCCCCCCCC(=O)O` [C21, n-Hexadecanoic acid], the antibacterial effects [3] is given as “good antibacterial effects”.
In the case of `CSSSC` [C11, Dimethyltrisulfane], the IC50 (α-glucosidase) is given as 462 ± 44 µM, the IC50 (α-amylase) is given as 332 ± 23 µM and the antimicrobial activity [4] is given as “promising antimicrobial activity”.
